{
  "source": "patent US20060095020A1",
  "about": "“Introduction of agent with medical device” (Medtronic, Inc., priority 2004, published 2006)",
  "test_system": "staphylococcus epidermidis",
  "details": "in vitro",
  "from_the_text": "One skilled in the are would be able to determine the best effective concentration of the active agent, such about 0.05%, about 1%, about 5%, about 10%, about 20%, or the like that should be deployed in a choosen configuration of a given device.\nFIG. 10 is a conceptual diagram illustrating an in vitro testing system 160 with an active agent. Testing system 160 includes a culture plate 162, which serves as a test platform. […] A experimental tube 168 made at least in part of diffusible material is deployed in plate 162 proximate to microorganisms 166. The diffusible material is configured to pass the test agent to the indicator by diffusion. Experimental tube 168 may be wholly or partially embedded in growth medium 164, or may rest atop growth medium 164. Experimental tube 168 includes a lumen configured to receive a test active agent.\nA pump 170 pumps the active agent from a reservoir 172 into the lumen of tube 168. A valve 174 may be closed to prevent leakage or other discharge of the active agent from tube 168, and an outlet reservoir 176 may be provided to collect fluid that discharges from tube 168. In some embodiments, pump 170, valve 174, or both are electronically controlled such that the quantity of active agent in tube 168 is known, such that the pressure of active agent in tube 168 is known, or such that the flow rate of active agent in tube 168 is known. When the active agent is an antibiotic, the effect of the antibiotic agent on microorganisms 166, if any, can be observed using conventional observational techniques, such as optical or microscopic examination. In this way, the effect of the active agent on microorganisms 166 serves as an indicator of diffusion of the test agent through the diffusible material.",
  "data": [
    {"compound": "OO", "note": "[hydrogen peroxide]", "values": [
      {"measurement": "zone of inhibition of bacterial growth", "setting": "0.3 percent hydrogen peroxide concentration", "value": "about twenty-five"},
      {"measurement": "zone of inhibition of bacterial growth from the site of diffusion", "setting": "thirty percent concentration hydrogen peroxide solution, diffusing through polyethylene 80 (PE80A) tubing", "value": "eighty"},
      {"measurement": "effectiveness against staphylococcus epidermidis", "setting": "thirty percent concentration hydrogen peroxide solution", "value": "substantial effectiveness"}
    ]}
  ]
}
